Assay results as given in ChEMBL document CHEMBL1140010, “Discovery of novel prostaglandin analogs of PGE2 as potent and selective EP2 and EP4 receptor agonists” (Bioorg Med Chem Lett, 2007).

Columns and labels:
[1] = target: T1, Prostaglandin E2 receptor EP2 subtype (Homo sapiens, UniProt P43116); assay: Displacement of [3H]PGE2 from human EP2 receptor expressed in HEK293 cells; format: cell-based
[2] = target: T2, Prostaglandin E2 receptor EP4 subtype (Homo sapiens, UniProt P35408); assay: Displacement of [3H]PGE2 from human EP4 receptor expressed in HEK293 cells; format: cell-based
T2 sequence (P35408 whole entry): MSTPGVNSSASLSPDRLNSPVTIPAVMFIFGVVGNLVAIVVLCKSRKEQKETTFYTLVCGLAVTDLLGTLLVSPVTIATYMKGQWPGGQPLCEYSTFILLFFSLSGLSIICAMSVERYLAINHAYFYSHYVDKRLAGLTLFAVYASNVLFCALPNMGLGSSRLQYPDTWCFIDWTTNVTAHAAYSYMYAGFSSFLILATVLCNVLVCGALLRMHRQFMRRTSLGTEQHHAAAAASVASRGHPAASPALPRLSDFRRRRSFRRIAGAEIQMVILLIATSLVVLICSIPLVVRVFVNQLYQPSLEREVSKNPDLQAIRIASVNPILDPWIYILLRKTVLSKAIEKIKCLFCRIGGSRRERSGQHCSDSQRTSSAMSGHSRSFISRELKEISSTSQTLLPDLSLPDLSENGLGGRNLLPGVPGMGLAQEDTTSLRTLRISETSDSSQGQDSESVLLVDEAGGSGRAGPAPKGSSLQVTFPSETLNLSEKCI

[3] = target: T1, Prostaglandin E2 receptor EP2 subtype; assay: Agonist activity at EP2 receptor expressed in HEK293 cells assessed as cAMP accumulation; format: functional, cell-based
[4] = target: T2, Prostaglandin E2 receptor EP4 subtype; assay: Agonist activity at EP4 receptor expressed in HEK293 cells assessed as cAMP accumulation; format: functional, cell-based
[5] = Clearance in iv dosed rat; format: ADME, organism-based; details: in vivo
[6] = target: T3, Prostaglandin E2 receptor EP1 subtype (Homo sapiens, UniProt P34995); assay: Displacement of [3H]PGE2 from human EP1 receptor expressed in HEK293 cells; format: cell-based
T3 sequence (P34995 whole entry): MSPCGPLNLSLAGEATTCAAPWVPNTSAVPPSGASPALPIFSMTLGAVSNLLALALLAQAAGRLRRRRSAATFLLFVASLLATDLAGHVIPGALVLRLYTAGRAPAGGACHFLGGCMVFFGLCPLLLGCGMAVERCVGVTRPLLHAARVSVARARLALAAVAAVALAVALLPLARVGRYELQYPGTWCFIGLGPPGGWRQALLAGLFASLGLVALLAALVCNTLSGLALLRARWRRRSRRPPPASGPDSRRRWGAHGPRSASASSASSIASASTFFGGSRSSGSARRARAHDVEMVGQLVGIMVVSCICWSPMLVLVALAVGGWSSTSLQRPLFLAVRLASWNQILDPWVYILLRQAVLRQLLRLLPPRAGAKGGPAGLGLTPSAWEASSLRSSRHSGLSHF

Mus musculus = assay: Induction of ovulation in orally dosed CD1 mouse; format: functional; details: CD1, po
[7] = Bioavailability in rat at 1 mg/kg; format: ADME, organism-based; details: in vivo
[8] = Half life in rat; format: ADME, organism-based; details: in vivo
[9] = target: T4, Prostaglandin E2 receptor EP3 subtype (Homo sapiens, UniProt P43115); assay: Displacement of [3H]PGE2 from human EP3 receptor expressed in HEK293 cells; format: cell-based
T4 sequence (P43115 whole entry): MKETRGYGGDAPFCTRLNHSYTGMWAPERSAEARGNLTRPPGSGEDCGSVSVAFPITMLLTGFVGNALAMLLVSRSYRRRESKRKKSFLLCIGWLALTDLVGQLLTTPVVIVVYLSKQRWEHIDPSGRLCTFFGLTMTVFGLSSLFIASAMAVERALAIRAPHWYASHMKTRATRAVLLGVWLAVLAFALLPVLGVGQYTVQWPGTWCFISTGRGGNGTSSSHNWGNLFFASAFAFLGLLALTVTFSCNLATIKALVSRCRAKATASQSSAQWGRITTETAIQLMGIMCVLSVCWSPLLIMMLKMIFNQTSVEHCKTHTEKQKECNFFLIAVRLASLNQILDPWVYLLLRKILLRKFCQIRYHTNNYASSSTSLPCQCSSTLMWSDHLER

T1 sequence (P43116 whole entry): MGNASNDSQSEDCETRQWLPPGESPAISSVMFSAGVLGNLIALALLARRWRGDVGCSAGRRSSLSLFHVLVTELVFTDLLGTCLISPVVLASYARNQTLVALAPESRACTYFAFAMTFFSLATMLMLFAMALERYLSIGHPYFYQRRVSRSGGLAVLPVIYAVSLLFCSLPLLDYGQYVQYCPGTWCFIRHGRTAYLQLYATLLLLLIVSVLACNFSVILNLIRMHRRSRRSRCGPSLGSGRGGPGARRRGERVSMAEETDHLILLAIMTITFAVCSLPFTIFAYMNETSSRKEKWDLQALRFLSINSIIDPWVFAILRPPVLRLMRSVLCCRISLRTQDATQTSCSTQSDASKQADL

Structure (SMILES)	Ki [1] [nM]	Ki [2] [nM]	EC50 [3] [nM]	EC50 [4] [nM]	clearance [5] [mL/min/kg]	Ki [6] [nM]	ED50 (Mus musculus) [mg/kg]	bioavailability [7] [%]	half-life [8] [h]	Ki [9] [nM]
CCCC/C=C(C)/C=C\[C@H]1CCC(=O)N1CCc1ccc(C(=O)O)cc1	802	443	–	–	–	–	–	–	–	–
CCCC/C=C(C)/C=C/[C@H]1CCC(=O)N1CCc1ccc(C(=O)O)cc1	29	–	–	–	–	–	–	–	–	–
CCCC/C=C\C=C\[C@H]1CCC(=O)N1CCc1ccc(C(=O)O)cc1	88	25	197	2	–	–	–	–	–	–
CC/C(C)=C\C=C\[C@H]1CCC(=O)N1CCc1ccc(C(=O)O)cc1	173	24	–	3	–	–	–	–	–	–
C/C(=C/C=C/[C@H]1CCC(=O)N1CCc1ccc(C(=O)O)cc1)CC1CCCC1	60	117	–	–	–	–	–	–	–	–
C/C(=C\C=C\[C@H]1CCC(=O)N1CCc1ccc(C(=O)O)cc1)c1ccccc1	749	29	> 10000	0.5	–	–	–	–	–	–
CCCC/C(C)=C\C=C\[C@H]1CCC(=O)N1CCc1ccc(C(=O)O)cc1	60	4	35	0.1	2.5	10000	1	72.6	7.7	10000
CC(C)=C/C=C/[C@H]1CCC(=O)N1CCc1ccc(C(=O)O)cc1	1850	45	–	4	–	–	–	–	–	–
CCCC[C@H](O)/C=C/[C@H]1CCC(=O)N1CCc1ccc(C(=O)O)cc1	126	2.5	16	0.002	–	> 10000	–	–	–	9000
CCCC/C(C)=C/C=C/[C@H]1CCC(=O)N1CCc1ccc(C(=O)O)cc1	134	181	222	15	–	10000	–	–	–	10000
